pIC50: −log10 of the molar value. Where a SMILES comes first, the peptide text is derived from it. Bridges are numbered along the chain shown (N, C = ends). [ ]: non-standard residue; d: D form. Agp = N=C(N)NC[C@H](N)C(=O)O; Nle = CCCC[C@H](N)C(=O)O; Dab = NCC[C@H](N)C(=O)O
What was measured:
[1] = target: human Kv1.2 potassium ion channel (human) (UniProt P16389); assay: cell-based or functional assay
[2] = target: human Kv1.1 potassium ion channel (human) (UniProt Q09470); assay: cell-based or functional assay
Sequence of human Kv1.1 potassium ion channel (human) (Q09470 whole entry): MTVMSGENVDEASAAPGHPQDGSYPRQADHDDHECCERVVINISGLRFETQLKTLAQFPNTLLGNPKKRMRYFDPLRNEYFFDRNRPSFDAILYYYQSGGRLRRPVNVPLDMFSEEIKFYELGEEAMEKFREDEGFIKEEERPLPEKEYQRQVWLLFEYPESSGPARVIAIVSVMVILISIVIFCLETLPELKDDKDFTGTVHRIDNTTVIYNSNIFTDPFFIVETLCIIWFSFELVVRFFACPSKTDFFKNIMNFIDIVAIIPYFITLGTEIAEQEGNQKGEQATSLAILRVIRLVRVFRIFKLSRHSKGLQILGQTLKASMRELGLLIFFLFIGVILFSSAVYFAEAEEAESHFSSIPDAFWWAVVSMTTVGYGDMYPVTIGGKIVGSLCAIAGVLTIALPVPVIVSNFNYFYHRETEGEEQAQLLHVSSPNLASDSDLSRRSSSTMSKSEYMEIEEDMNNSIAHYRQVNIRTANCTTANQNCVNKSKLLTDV

[3] = target: human Kv1.3 (potassium voltage-gated channel subfamily A member 3) (human) (UniProt P22001); assay: cell-based or functional assay
Sequence of human Kv1.3 (potassium voltage-gated channel subfamily A member 3) (human) (P22001 whole entry): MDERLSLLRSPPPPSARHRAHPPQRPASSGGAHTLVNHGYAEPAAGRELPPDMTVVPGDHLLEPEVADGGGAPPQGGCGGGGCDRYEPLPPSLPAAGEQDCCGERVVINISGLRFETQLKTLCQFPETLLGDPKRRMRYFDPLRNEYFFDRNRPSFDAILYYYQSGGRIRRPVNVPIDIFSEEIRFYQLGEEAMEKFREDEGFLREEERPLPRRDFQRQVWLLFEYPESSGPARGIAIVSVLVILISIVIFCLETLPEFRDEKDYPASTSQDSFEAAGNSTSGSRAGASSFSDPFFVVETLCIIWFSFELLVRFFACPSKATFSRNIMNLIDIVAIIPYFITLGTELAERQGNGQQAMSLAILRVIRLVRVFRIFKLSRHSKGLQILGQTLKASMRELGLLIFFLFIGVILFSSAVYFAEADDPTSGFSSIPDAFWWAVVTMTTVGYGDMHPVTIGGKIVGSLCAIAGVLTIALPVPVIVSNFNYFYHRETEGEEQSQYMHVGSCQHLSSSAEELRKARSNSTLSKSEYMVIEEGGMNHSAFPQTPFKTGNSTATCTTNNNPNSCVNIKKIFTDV

[4] = target: human Kv1.6 potassium ion channel (human) (UniProt P17658); assay: cell-based or functional assay
Sequence of human Kv1.6 potassium ion channel (human) (P17658 whole entry): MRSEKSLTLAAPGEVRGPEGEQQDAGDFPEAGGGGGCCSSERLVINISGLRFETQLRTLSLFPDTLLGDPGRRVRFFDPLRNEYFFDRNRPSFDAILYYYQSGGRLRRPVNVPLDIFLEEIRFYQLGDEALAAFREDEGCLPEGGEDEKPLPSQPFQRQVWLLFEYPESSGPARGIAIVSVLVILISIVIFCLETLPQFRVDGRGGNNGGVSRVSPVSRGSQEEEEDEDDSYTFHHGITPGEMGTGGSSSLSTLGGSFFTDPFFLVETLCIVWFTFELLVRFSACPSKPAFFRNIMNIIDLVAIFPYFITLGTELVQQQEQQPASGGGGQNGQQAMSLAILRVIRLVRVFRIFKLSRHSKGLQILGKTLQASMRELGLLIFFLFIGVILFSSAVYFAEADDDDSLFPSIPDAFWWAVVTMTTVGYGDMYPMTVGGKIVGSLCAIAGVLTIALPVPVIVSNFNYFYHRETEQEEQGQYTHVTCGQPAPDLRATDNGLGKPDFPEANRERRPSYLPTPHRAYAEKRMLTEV

Rat whole blood = Rat whole blood (Rattus norvegicus, UniProt P15384); assay type: cell-based; conditions: IL-17A release, thapsigargin, 24 Hr, at least 2 replicates
Sequence of Rat whole blood (P15384 whole entry): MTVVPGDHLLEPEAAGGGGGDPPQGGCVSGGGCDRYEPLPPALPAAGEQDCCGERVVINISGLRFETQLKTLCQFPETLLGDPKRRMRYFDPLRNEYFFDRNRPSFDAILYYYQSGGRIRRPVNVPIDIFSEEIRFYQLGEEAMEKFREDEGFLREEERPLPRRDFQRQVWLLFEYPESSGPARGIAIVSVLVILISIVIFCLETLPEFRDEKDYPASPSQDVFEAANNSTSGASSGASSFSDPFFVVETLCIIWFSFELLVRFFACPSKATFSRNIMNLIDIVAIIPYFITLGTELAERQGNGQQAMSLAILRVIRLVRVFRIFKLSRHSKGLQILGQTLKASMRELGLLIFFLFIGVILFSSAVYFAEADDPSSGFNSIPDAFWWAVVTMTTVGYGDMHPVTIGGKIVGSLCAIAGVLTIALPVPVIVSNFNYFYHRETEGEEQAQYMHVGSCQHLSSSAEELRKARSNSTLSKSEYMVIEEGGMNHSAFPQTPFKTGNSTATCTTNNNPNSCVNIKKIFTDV

human Kv1.1 = target: T1, human Kv1.1 (Homo sapiens, UniProt Q09470); assay: cell-based; conditions: for Selectivity ratio Kv1.1/Kv1.3: ratio of patch clamp IC50 values; for pIC50: CHO cells, QPatch whole-cell, read-out: Potency IC50 Kv1.1
T1 construct: expressed in transfected cells; host or cells: CHO
T1 sequence (Q09470 whole entry): as the sequence (Q09470 whole entry) above

human Kv1.6 = target: T2, human Kv1.6 (Homo sapiens, UniProt P17658); assay: cell-based; conditions: for Selectivity ratio Kv1.6/Kv1.3: ratio of patch clamp IC50 values; for pIC50: CHO cells, QPatch whole-cell, read-out: Potency IC50 Kv1.6
T2 construct: expressed in transfected cells; host or cells: CHO
T2 sequence (P17658 whole entry): as the sequence (P17658 whole entry) above

[5] = Pharmacokinetic characterisation according to example 6 of PCT/EP2020/076187; conditions: in vivo; dose 70 nmol/kg
Procedure: The pharmacokinetic characterization of compound 14 were performed according to the method described in example 6 of international patent application PCT/EP2020/076187.

human Kv1.2 = target: T3, human Kv1.2 (Homo sapiens, UniProt P16389); assay: cell-based; conditions: for Selectivity ratio Kv1.2/Kv1.3: ratio of patch clamp IC50 values; for pIC50: CHO cells, QPatch whole-cell, read-out: Potency IC50 Kv1.2
T3 construct: expressed in transfected cells; host or cells: CHO
T3 sequence (P16389 whole entry): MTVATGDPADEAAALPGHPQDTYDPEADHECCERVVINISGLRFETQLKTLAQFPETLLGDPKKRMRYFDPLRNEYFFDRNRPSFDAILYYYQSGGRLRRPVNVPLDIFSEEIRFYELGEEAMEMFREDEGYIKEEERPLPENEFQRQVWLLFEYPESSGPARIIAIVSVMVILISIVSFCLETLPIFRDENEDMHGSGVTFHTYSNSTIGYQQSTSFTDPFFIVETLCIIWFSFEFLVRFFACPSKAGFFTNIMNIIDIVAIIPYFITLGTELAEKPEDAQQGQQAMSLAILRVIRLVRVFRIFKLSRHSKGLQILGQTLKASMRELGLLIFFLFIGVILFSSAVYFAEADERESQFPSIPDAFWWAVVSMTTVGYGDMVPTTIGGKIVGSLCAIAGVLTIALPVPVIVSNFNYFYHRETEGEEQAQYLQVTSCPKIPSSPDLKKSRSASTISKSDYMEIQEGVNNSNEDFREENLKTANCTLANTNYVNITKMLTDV

human Kv1.3 = target: T4, human Kv1.3 (Homo sapiens, UniProt P22001); assay: cell-based; conditions: CHO cells, QPatch whole-cell; read-out: Potency IC50 Kv1.3
T4 construct: expressed in transfected cells; host or cells: CHO
T4 sequence (P22001 whole entry): as the sequence (P22001 whole entry) above

[6] = target: T5, human Kv1.3 voltage-gated K+ channel (Homo sapiens, UniProt P22001); assay: Kv1.3 blocker activity in FLIPR thallium assay; assay type: cell-based
T5 construct: host or cells: CHO-DUKX
T5 sequence (P22001 whole entry): as above
In short: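 CHO-DUKX cells stably expressing Kv1.3 were pre-incubated with compound for 30 min at 37° C in buffer with 0.02% w/v casein. Depolarization used final stimulus buffer with 5 mM K2SO4 and 1 mM Tl2SO4. Thallium-flux fluorescence was read at maximum response at 50 s, 37° C, and IC50 derived.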

[7] = target: human Kv1.3 voltage-gated K+ channel (potassium voltage-gated channel subfamily A member 3) (human) (UniProt P22001); assay: cell-based or functional assay
Sequence of human Kv1.3 voltage-gated K+ channel (potassium voltage-gated channel subfamily A member 3) (human) (P22001 whole entry): as above

[8] = Pharmacokinetic characterisation after single s.c. injection in Sprague Dawley rats; conditions: male, rat, plasma, sc, 100 nmol/kg
Procedure: Sprague Dawley (males with a body weight of approximately 250-350 g) were given a single subcutaneous (s.c.) injection of each peptide to be tested.
Following s.c. administration of the selected compounds (dose 100 nmol/kg, dosing volume either 2 mL/kg), blood samples were drawn at 5 min, 15 min, 30 min, 60 min, 2 h, 3 h, 4 h, 6 h, 8 h post-dose. At each sampling time point, samples from the rats were drawn by sublingual bleeding. After last sampling the rats were sacrificed by O2/CO2 anaesthesia. The dosing vehicle was 10 mM phosphate, 0.8% NaCl, 0.05% Polysorbate 20 (pH 6.0).
Plasma samples were analyzed after solid phase extraction (SPE) by liquid chromatography mass spectrometry (LC-MS/MS). Mean plasma concentrations were used for calculation of the pharmacokinetic parameters using the non-compartmental approach in Phoenix WinNonlin 6.4 or a later version. Plasma terminal elimination half-life (T½) was determined as In(2)/λz where λz is the magnitude of the slope of the log linear regression of the log concentration versus time profile during the terminal phase. AUCinf is the area under the plasma concentration—time curve extrapolated to infinity (AUCinf=AUClast+Clast/λz, where Clast is the last observed plasma concentration). Cmax is the maximum observed concentration, occurring at Tmax.

Sequence of human Kv1.2 potassium ion channel (human) (P16389 whole entry): as the sequence (P16389 whole entry) above

Compound: Moka1 (peptide)
- Potency IC50 (nM) Kv1.2 [1]: 275 nM
- Selectivity Kv1.2/Kv1.3 [1]: 31
- Potency IC50 (nM) Kv1.1 [2]: > 3000 nM
- Selectivity Kv1.1/Kv1.3 [2]: > 300
- Potency IC50 (nM) Kv1.3 [3]: 9 nM
- Potency IC50 (nM) Kv1.6 [4]: > 3000 nM
- Selectivity Kv1.6/Kv1.3 [4]: > 300

Compound: Vm24 (peptide)
- Potency IC50 (nM) Kv1.2 [1]: 4.7 nM
- Selectivity Kv1.2/Kv1.3 [1]: 31
- Potency IC50 (nM) Kv1.1 [2]: 0.097 nM
- Selectivity Kv1.1/Kv1.3 [2]: 0.65
- Potency IC50 (nM) Kv1.3 [3]: 0.15 nM
- Potency IC50 (nM) Kv1.6 [4]: 21 nM
- Selectivity Kv1.6/Kv1.3 [4]: 139

Compound: ShK (peptide)
- Potency IC50 (nM) Kv1.2 [1]: 11 nM
- Potency IC50 (nM) Kv1.3 [3]: 0.017 nM
- Potency IC50 (nM) Kv1.6 [4]: 0.19 nM

Compound: CCCC[C@H](NC(=O)[C@@H]1CCCN1)C(=O)N[C@@H](CCC(=O)O)C(=O)N[C@@H](CCCC)C(=O)N[C@@H](CCCNC(=N)N)C(=O)N[C@H]1CSSC[C@@H]2NC(=O)[C@H](CCCCN)NC(=O)CNC(=O)[C@H](Cc3ccccc3)NC(=O)[C@H]([C@@H](C)CC)NC(=O)[C@H](CO)NC(=O)CNC(=O)[C@H]([C@@H](C)CC)NC(=O)[C@H](C)NC(=O)[C@H](C)NC(=O)[C@H](CC(C)C)NC(=O)[C@@H]3CSSC[C@@H](C(=O)N[C@@H](Cc4ccc(O)cc4)C(=O)N4CCC[C@H]4C(=O)N[C@@H](CCCNC(=N)N)C(N)=O)NC(=O)[C@H](CCCCN)NC(=O)[C@H](CSSC[C@H](NC(=O)[C@H](CCC(=O)O)NC(=O)[C@H](C(C)C)NC(=O)[C@H](CO)NC(=O)[C@H](C)NC(=O)[C@H](CO)NC1=O)C(=O)N[C@@H](CCCCN)C(=O)N[C@@H](CCC(N)=O)C(=O)N[C@@H](CCCCN)C(=O)N3)NC(=O)[C@H](CCCCN)NC(=O)[C@H](CCCCN)NC(=O)[C@H](CC(N)=O)NC(=O)[C@H](CCCC)NC2=O [compound 13] (H-P[Nle]E[Nle]RCSASVECKQKCLAAIGSIFGKC[Nle]NKKCKCYPR-NH2; disulfide 6-27, 12-32, 16-34)
- pIC50 (Rat whole blood): 9.47
- Selectivity ratio Kv1.1/Kv1.3 (human Kv1.1): >16200
- Selectivity ratio Kv1.6/Kv1.3 (human Kv1.6): >16200
- AUC(0-inf) [5]: 0.0268 µM·h
- Cmax [5]: 16.5 nM
- half-life [5]: 1.7 h
- Selectivity ratio Kv1.2/Kv1.3 (human Kv1.2): 1689

Compound: CCCC[C@H](NC(=O)[C@@H]1CCCN1)C(=O)N[C@@H](CCC(=O)O)C(=O)N[C@@H](CCCC)C(=O)N[C@@H](CCCNC(=N)N)C(=O)N[C@H]1CSSC[C@@H]2NC(=O)[C@H](CCCCN)NC(=O)CNC(=O)[C@H](Cc3ccccc3)NC(=O)[C@H]([C@@H](C)CC)NC(=O)[C@H](CO)NC(=O)CNC(=O)[C@H]([C@@H](C)CC)NC(=O)[C@H](C)NC(=O)[C@H](C)NC(=O)[C@H](CC(C)C)NC(=O)[C@@H]3CSSC[C@@H](C(=O)N[C@@H](Cc4ccc(O)cc4)C(=O)N4CCC[C@H]4C(=O)N[C@@H](CCCNC(=N)N)C(=O)O)NC(=O)[C@H](CCCCN)NC(=O)[C@H](CSSC[C@H](NC(=O)[C@H](CCC(=O)O)NC(=O)[C@H](C(C)C)NC(=O)[C@H](CO)NC(=O)[C@H](C)NC(=O)[C@H](CNC(=N)N)NC1=O)C(=O)N[C@@H](CCCCN)C(=O)N[C@@H](CCC(N)=O)C(=O)N[C@@H](CCCCN)C(=O)N3)NC(=O)[C@H](CCCCN)NC(=O)[C@H](CCCCN)NC(=O)[C@H](CC(N)=O)NC(=O)[C@H](CCCC)NC2=O [Cpd No. 3] (H-P[Nle]E[Nle]RC[Agp]ASVECKQKCLAAIGSIFGKC[Nle]NKKCKCYPR-OH; disulfide 6-27, 12-32, 16-34)
- pIC50 (human Kv1.3): 10.19
- pIC50 (human Kv1.1): < 5.52
- Selectivity ratio Kv1.1/Kv1.3 (human Kv1.1): >46000
- pIC50 (human Kv1.6): < 5.52
- Selectivity ratio Kv1.6/Kv1.3 (human Kv1.6): >46000
- pIC50 [6]: 9.89
- pIC50 (human Kv1.2): 6.42
- Selectivity ratio Kv1.2/Kv1.3 (human Kv1.2): 6000

Compound: ShK-186: H-[phosphotyrosyl][8-Amino-3,6-dioxaoctanoyl]…-NH2 (peptide)
- IC50 of IL-2 release, anti-CD3 stimulated human PBMCs (Example 5b) [7]: 0.05 nM

Compound: CCCC[C@H](NC(=O)[C@@H]1CCCN1)C(=O)N[C@@H](CCC(=O)O)C(=O)N[C@@H](CCCC)C(=O)N[C@@H](CCCNC(=N)N)C(=O)N[C@H]1CSSC[C@@H]2NC(=O)[C@H](CCCCN)NC(=O)CNC(=O)[C@H](Cc3ccccc3)NC(=O)[C@H]([C@@H](C)CC)NC(=O)[C@H](CO)NC(=O)CNC(=O)[C@H]([C@@H](C)CC)NC(=O)[C@H](C)NC(=O)[C@H](C)NC(=O)[C@H](CC(C)C)NC(=O)[C@@H]3CSSC[C@@H](C(=O)N[C@@H](Cc4ccc(O)cc4)C(=O)N4CCC[C@H]4C(=O)N[C@@H](CCCNC(=N)N)C(=O)O)NC(=O)[C@H](CCCCN)NC(=O)[C@H](CSSC[C@H](NC(=O)[C@H](CCC(=O)O)NC(=O)[C@H](C(C)C)NC(=O)[C@H](CO)NC(=O)[C@H](C)NC(=O)[C@H](CCN)NC1=O)C(=O)N[C@@H](CCCCN)C(=O)N[C@@H](CCC(N)=O)C(=O)N[C@@H](CCCCN)C(=O)N3)NC(=O)[C@H](CCCCN)NC(=O)[C@H](CCCCN)NC(=O)[C@H](CC(N)=O)NC(=O)[C@H](CCCC)NC2=O [Cpd No. 1] (H-P[Nle]E[Nle]RC[Dab]ASVECKQKCLAAIGSIFGKC[Nle]NKKCKCYPR-OH; disulfide 6-27, 12-32, 16-34)
- pIC50 (human Kv1.3): 10.55
- pIC50 (human Kv1.1): < 5.52
- Selectivity ratio Kv1.1/Kv1.3 (human Kv1.1): >100000
- pIC50 (human Kv1.6): < 5.52
- Selectivity ratio Kv1.6/Kv1.3 (human Kv1.6): >100000
- pIC50 [6]: 9.92
- AUC(0-inf) [8]: 0.152 µM·h
- Cmax [8]: 90.8 nM
- half-life [8]: 1.7 h
- pIC50 (human Kv1.2): 6.32
- Selectivity ratio Kv1.2/Kv1.3 (human Kv1.2): 17000

Source: US20240182531A1, “KV1.3 Blockers” (priority 2021, published 2024)
